Values after ≈ are worked out from the molar mass of the structure shown.
Tests used:
[1] = tested on: Pseudomonas aeruginosa; experiment: Experimental infection, implanted sponge method; type: in vivo, mice
Description: The effectiveness of three oil formulations were also tested, at 0.15, 0.2, 0.25% and a control with placebo in mice experimentally infected using implanted sponge method, inoculated with Pseudomonas aeruginosa and Staphylococcus aureus. Recuperation of the animal was between 3 and 4 days of treatment (Tables No. 3 and 3.1).
Read: n = Accumulated from recuperated animals Tr = Recuperation time in days (weighted average) ((n1±1) + ((n2-n1) ±2)+((n3-n2)±3((n4-n3)±4)/n [formula] I,II, III: treated with 2-bromo-5-(2-bromo-2-nitro-vinyl)-furan.

[2] = tested on: Pseudomonas aeruginosa; experiment: Infected burn wound treated with ointments; type: in vivo, guinea-pigs; conditions: concentration of ointment applied on 2 cm^2 infected burns
Description: The "in vivo" effectiveness of four ointments of 2-bromo-5-(2-bromo-2-nitro-vinyl)-furan was evaluated at 1, 0.5, 0.25 and 0.125% in hydrophislous ointment applying it on 2 cm^2 of burns provoked to guinea-pigs and subsequently infected with Pseudomonas aeruginosa by a burn wound in an area of 2 cm^2, using positive and negative control groups.

[3] = Oral LD50; type: in vivo, mice OF1; conditions: taken orally, tragacant gum as vehicle
Description: (§1) Moreover, the anatomopathological elements and the clinical events were characterized during the experiments.

[4] = Percutaneous LD50; type: in vivo, Sprague Dawley rats; conditions: interscapular region, 0.2 ml/10 g of body mass
Description: as §1

[5] = Ophthalmic irritability studies; type: in vivo
Description: as §1

[6] = tested on: Neisseria meningitidis; experiment: In vitro MIC (serial dilution); type: cell-based
Description: (§2) The antimicrobial sensitivity was first evaluated "in vitro" using the serial dilution method for bacteria and fungi. Other growth methods in agar cultures were included for other species. The liquid and solid mediums used were Mueller-Hinton, Tryptona Soya, Sabouraud Dextrosa, Sabouraud Maltose and other mediums in accordance with the cultural demands of the micro-organisms valued.
(§3) The temperature and incubation period was adjusted to conditions and characteristics of the micro-organisms used.
(§4) The Minimal Inhibitory Concentration (MIC) was calculated in terms of MIC50 and MIC90 in µg/ml.

[7] = tested on: Fusarium sp.; experiment: In vitro MIC (serial dilution); type: cell-based; conditions: read-out: Minimal Inhibitory Concentration (MIC)
Description: as §2, §3, §4

[8] = tested on: Salmonella dublin; experiment: In vitro MIC (serial dilution); type: cell-based; conditions: Salmonella enterica
Description: as §2, §3, §4

[9] = tested on: Salmonella thyphi; experiment: In vitro MIC (serial dilution); type: cell-based
Description: as §2, §3, §4

[10] = tested on: Salmonella typhimurium; experiment: In vitro MIC (serial dilution); type: cell-based; conditions: Salmonella enterica
Description: as §2, §3, §4

[11] = tested on: Staphylococcus aureus; experiment: In vitro MIC (serial dilution); type: cell-based
Description: as §2, §3, §4

[12] = tested on: Pseudomonas maltophila; experiment: In vitro MIC (serial dilution); type: cell-based
Description: as §2, §3, §4

[13] = tested on: Corynebacterium pyogenes; experiment: In vitro MIC (serial dilution); type: cell-based; conditions: Rhodococcus (subgen. Prescottella) equi
Description: as §2, §3, §4

[14] = tested on: Streptococcus agalactiae and Staphylococcus aureus; experiment: Intracisternal treatment of clinical mastitis; type: in vivo, femal oxes
Description: The active principle in a concentration of 0.1 % is applied by intracisternal route daily for three consecutive days in femal oxes clinically affected by mastitis of morbid catarrh purulen course types, in which the isolated micro-organisms were Streptococcus agalactiae and Staphylococcus aureus. As a control medicament the mammary infusion of neomicine was used.

[15] = tested on: Pseudomonas aeruginosa; experiment: Experimental eye infection, erosion and instillation method; type: in vivo, New Zealand Rabbits; conditions: post inoculation evaluation
Description: The effectiveness of two oil formulations was checked of 0.05% for the experimental treatment of eye infections by Pseudomonas aeruginosa in New Zealand Rabbits through the erosion and instillation method. The effectiveness of treatments was tested clinically and microbiologically, observing significant differences with the control group (not treated) (Table No. 2 and 2.1.).

[16] = tested on: septic puerperal metritis; experiment: Treatment of septic puerperal metritis; type: in vivo, female oxes; conditions: G-1 1.5% oil solution intrauterine, Tetracycline abdominal aorta route
Description: The treatment consisted in applying 40 ml for three consecutive days at intervals of 24 hours from the diagnosis of the disease process. Treatment was compared with intrasoric tetracyclin.

[17] = tested on: Pseudomonas aeruginosa; experiment: Intramuscular treatment of stud bulls affected with piocianosis; type: in vivo
Description: The active principle was administered in a dose of 5-10 mg/kg of body mass by intramuscular route in bulls affected with piocianosis Pseudomonas aeruginosa. […] In clinical tests no allergic reactions were detected in animals (Table No.5).

[18] = Chronic study, external application for six months; type: in vivo, Sprague Dawley rats; conditions: applied externally for a period of six months
Description: Chronic studies of 2-bromo-5-(2-bromo-nitro-vinyl)-furan were made on Sprague Dawley rats.

[19] = group I, ointment at 0.05% for 8 days
[20] = group II, ointment at 0.05% for 4 days
[21] = group III, eye drops at 0.05% for 4 days
[22] = 5-10 mg/kg of body mass, intramuscular route
[23] = 25 ill bulls, 5 treatments per animal, 5-10 mg/kg intramuscular

For `O=[N+]([O-])C(Br)=Cc1ccc(Br)o1` [Product G-1, 2-bromo-5-(2-bromo-2-nitro-vinyl)-furan], the Accumulated clinical recuperation ([1]; Formula 0.15%, day 3, 10 mice) was 80.0a %, the “Accumulated clinical recuperation, n (recuperated animals)” value (“Accumulated clinical recuperation, n” below) ([1]; Formula 0.15%, day 3, 10 mice) was 8 and the Accumulated clinical recuperation ([1]; Formula 0.15%, day 5, 10 mice) was 100.0a %. The “Accumulated clinical recuperation, n” value ([1]; Formula 0.15%, day 5, 10 mice) was 10, the Accumulated clinical recuperation ([1]; Formula 0.15%, day 7, 10 mice) was 100.0% and the “Accumulated clinical recuperation, n” value ([1]; Formula 0.15%, day 7, 10 mice) was 10. The Accumulated clinical recuperation ([1]; Formula 0.2%, day 3, 10 mice) was 80.0a %, the “Accumulated clinical recuperation, n” value ([1]; Formula 0.2%, day 3, 10 mice) was 8 and the Accumulated clinical recuperation ([1]; Formula 0.2%, day 5, 10 mice) was 100.0a %. For the same compound, the “Accumulated clinical recuperation, n” value ([1]; Formula 0.2%, day 5, 10 mice) was 10, the Accumulated clinical recuperation ([1]; Formula 0.2%, day 7, 10 mice) was 100.0% and the “Accumulated clinical recuperation, n” value ([1]; Formula 0.2%, day 7, 10 mice) was 10. The Accumulated clinical recuperation ([1]; Formula 0.25%, day 3, 10 mice) was 50.0a %, the “Accumulated clinical recuperation, n” value ([1]; Formula 0.25%, day 3, 10 mice) was 5 and the Accumulated clinical recuperation ([1]; Formula 0.25%, day 5, 10 mice) was 90.0a %. For the same compound, the “Accumulated clinical recuperation, n” value ([1]; Formula 0.25%, day 5, 10 mice) was 9, the Accumulated clinical recuperation ([1]; Formula 0.25%, day 7, 10 mice) was 100.0% and the “Accumulated clinical recuperation, n” value ([1]; Formula 0.25%, day 7, 10 mice) was 10. The “effective dose 50 (ED50)” value [2] was 0.125%, the “Lethal Average Dose (LD50)” value ([3]; mice OF1 females) was 1731.4 mg/kg of body mass and the “Lethal Average Dose (LD50)” value ([3]; mice OF1 male) was 1835.8 mg/kg of body mass. For the same compound, the LD50 ([4]; female Sprague Dawley rats) was 14.7%, the LD50 ([4]; male Sprague Dawley rats) was 15.8% and the “concentrations at which no irritating effects were made on the eye structure” value [5] was “lower than 1.25%”. For the same compound, the MIC50 [6] was 1.84 µg/mL (≈ 6.2 µM), the MIC90 [6] was 3.47 µg/mL (≈ 11.7 µM) and the MIC [7] was 50 µg/mL (≈ 168 µM). For the same compound, the MIC50 [8] was 4.38 µg/mL (≈ 14.8 µM), the MIC90 [8] was 5.73 µg/mL (≈ 19.3 µM) and the MIC50 [9] was 2.5 µg/mL (≈ 8.42 µM). For the same compound, the MIC90 [9] was 10 µg/mL (≈ 33.7 µM), the MIC90 ([10]; TYPHIMURIUM, read-out: MIC90 values) was 17.7 µg/mL (≈ 59.5 µM) and the MIC50 ([10]; Salmonella typhimurium) was 7.43 µg/mL (≈ 25 µM). For the same compound, the MIC50 [11] was 5.91 µg/mL (≈ 19.9 µM), the MIC90 [11] was 12.9 µg/mL (≈ 43.6 µM) and the MIC50 [12] was 29.7 µg/mL (≈ 100 µM). The MIC90 [12] was 45.1 µg/mL (≈ 152 µM), the MIC50 [13] was 3.56 µg/mL (≈ 12 µM) and the MIC90 [13] was 5.59 µg/mL (≈ 18.8 µM). The “Recuperated n (affected parts)” value ([14]; G-I 0.1% intracisternal daily for three days (57 parts), neomicine mammary infusion (12 parts)) was 56, the “Recuperated % (clinical recuperation of the affected parts)” value ([14]; G-I 0.1% intracisternal daily for three days, neomicine mammary infusion) was 98.25% and the “Bacteriolo-gical Exam” value [15, 19] was 6 (+). For the same compound, the Edam [15, 19] was 6/6, the Hyperemia [15, 19] was 6/6 and the Secretions [15, 19] was 6/6. For the same compound, the Ulcer [15, 19] was 6/6, the “Bacteriolo-gical Exam” value [15, 20] was 6 (+) and the Edam [15, 20] was 6/6. The Hyperemia [15, 20] was 6/6, the Secretions [15, 20] was 6/6 and the Ulcer [15, 20] was 6/6. The “Bacteriolo-gical Exam” value [15, 21] was 6 (+), the Edam [15, 21] was 6/6 and the Hyperemia [15, 21] was 6/6. The Secretions [15, 21] was 6/6, the Ulcer [15, 21] was 6/6 and the Recuperated n ([16]; 27 females, 19 females) was 20. The “IIA (Artificial insemination index)” value [16] was 1.091±0.30a, the Recuperated % [16] was 74.1% and the “T-R (Average of treatment interval of clinical recuperation)” value [16] was 17.7 days. For the same compound, the “IIA (Artificial insemination index)” value ([16]; listed as new formula) was 1.09 ± 0.30, the “allergic reactions to the medicament” value [17, 22] was “without any allergic reactions to the medicament being detected” and the “seminal parameters established as quality control” value [17, 22] was “no alterations being detected”. The “Recuperated (animals)” value [17, 23] was 21, the percentage of effectiveness [17, 23] was 84% and the “bacteriological tests carried out in the semen” value ([17]; at 3,7,14,21 and 28 days) was “negative at germ”. The “cytotoxicity and morphological characteristic of spermatozoid” value ([17]; frozen semen of treated bulls) was “absence of cytotoxicity and variations in morphological characteristic of spermatozoid” and the “haematological, haemochemical and histopathological studies” value [18] was “did not lead to any major problems in the different organs and tissues analysed”.

Reference: patent EP0678516B1, “Preparation of 2-bromo-5-(2-bromo-2-nitrovinyl)-furan and its use as microcide” (CENTRO DE BIOACTIVOS QUIMICOS DE LA UNIVERSIDAD CENTRAL DE …, priority 1994, dated 1995)
